# Entries after “also recorded” stand apart in the source; their conditions may differ. Where two headings read alike, the source gives them in different places. Numbered stars: 1 amine (or outer) side, 2 acyl side, 3 side chain; on linkers, the order of the positions; unused ones are H or OH. Bridge positions count the residues as written; N and C are the ends. Square brackets hold non-standard residues; d marks the D form. Primed or numbered codes have the meaning given here. Ends that are not written are not given here. Peptide text beside a SMILES is read from it. DSG″ = disuccinimidyl glutarate, a bis-NHS cross-linker that leaves a glutaryl bridge between two amines; Glutaryl = O=C(CCCC(=O)[*:2])[*:1]; NMeA = CN[C@@H](C)C(=O)O
# Assays:
# [1] = test system: HeLa cells stably transfected with a GFP-LC3 fusion; assay type: cell-based; details: HeLa starved in Hank's Balanced Salt Solution
# Text: FIG. 11: Confocal microscopy of SUPR 4B1W-Rox in autophagic HeLa cells. A line of HeLa cells was stably transfected with a GFP-LC3 fusion. When starved for 2+ hours in Hank's Balanced Salt Solution, these cells become autophagic and GFP signal becomes punctate as GFP-LC3 fusions are embedded in the autophagosome.
# [2] = target: LC3 (Homo sapiens, UniProt Q9H492); assay: Surface plasmon resonance binding to LC3
# [3] = target: T1, LC3A (Homo sapiens, UniProt Q9H492); assay type: binding; details: peptide immobilized on solid phase
# T1 construct: made in house
# [4] = target: LC3B (Homo sapiens, UniProt Q9GZQ8); assay type: binding; details: peptide immobilized on solid phase
# [5] = test system: GABARAP1; assay type: binding; details: peptide immobilized on solid phase
# [6] = target: GABARAP2 (Homo sapiens, UniProt P60520); assay type: binding; details: peptide immobilized on solid phase
# GABARAP2, sequence (P60520 1-116 limits assumed): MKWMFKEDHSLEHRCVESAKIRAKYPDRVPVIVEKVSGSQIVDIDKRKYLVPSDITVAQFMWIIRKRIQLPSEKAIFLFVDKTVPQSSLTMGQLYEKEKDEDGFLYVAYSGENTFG
# [7] = target: Atg8 (Saccharomyces cerevisiae, UniProt P38182); assay type: binding, yeast; details: peptide immobilized on solid phase
# Atg8, sequence (P38182 1-116): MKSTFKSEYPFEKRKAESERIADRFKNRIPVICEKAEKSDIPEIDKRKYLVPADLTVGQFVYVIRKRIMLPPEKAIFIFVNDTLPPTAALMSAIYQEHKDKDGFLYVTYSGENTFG
# [8] = target: T2, LC3C (Homo sapiens, UniProt Q9BXW4); assay type: binding; details: peptide immobilized on solid phase
# T2 construct: made in house
# T2 sequence (Q9BXW4 1-126 limits assumed): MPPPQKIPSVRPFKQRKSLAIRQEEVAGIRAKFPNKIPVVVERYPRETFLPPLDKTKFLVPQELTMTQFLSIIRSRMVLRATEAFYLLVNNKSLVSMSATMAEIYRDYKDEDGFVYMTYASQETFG
# [9] = target: T3, ubiquitin (Homo sapiens, UniProt P62987); assay type: binding; details: peptide immobilized on solid phase
# T3 construct: made in house
# [10] = test system: Atg4B:LC3-AMC interaction; assay: Atg4B cleavage of LC3-AMC (fluorescence); assay type: biochemical; details: LC3-AMC 120 nM, Atg4B 220 pM, increasing peptide concentrations
# Text: FIG. 9A—In naturally occurring LIMs, the most common amino acid in the leading position of the motif is tryptophan. […] The reason for this may be that there exists only one codon for tryptophan, making it much less likely to appear in a selected peptide than another W-site recognizing amino acid. Modifying the lead position of SUPR 4B (SEQ ID NO: 1) from phenylalanine to tryptophan was hypothesized to produce a peptide that obtains improved binding affinity towards LC3 by more closely mimicking a naturally occurring LIM. Tryptophan may also confer increased hydrophobicity, which may enhance cell uptake. […] Atg19 is provided in SEQ ID NO: 10, Atg32 is provided in SEQ ID NO: 11, Atg3 is provided in SEQ ID NO: 12, Atg4B is provided in SEQ ID NO: 13, p62 is provided in SEQ ID NO: 14, NBR1 is provided in SEQ ID NO: 15. […] FIG. 9D—LC3-AMC (120 nM) was incubated with Atg4B (220 pM) in the presence of SUPR4B1W or a non-functional scrambled variant at the concentrations shown. Cleavage of LC3-AMC was measured by increased fluorescence (λEx=380 nm, […]).
# Cleavage of LC3-AMC was measured by increased fluorescence.
# [11] = test system: OVCAR8 cells; details: 50 μM peptide; for cell viability (MTT), DIRAS3-induced (autophagic) cells: OVCAR8, Dox-induced, 72 hours
# Method: (§1) FIGS. 6A-D: SUPR4B in the DIRAS3 autophagy model. FIGS. 6A&B—MTT viability assays with 50 M linear and cyclic SUPR 4B on non-DIRAS3 induced OVCAR8 (FIG. 6B) and SKOv3 (FIG. 6A) cells. […] Induction was performed using 1 g/mL DOX.
# (§2) FIGS. 8A-F: SUPR4B in the DIRAS3 autophagy model. […] Inhibition of autophagy by the present compound were hypothesized to restore cellular growth. […] FIGS. 8A&B—MTT viability assays with 50 M linear and cyclic SUPR on non-DIRAS3 induced OVCAR8 (FIG. 8A) and SKOv3 (FIG. 8B) cells. […] FIGS. 8C&D—MTT viability assays on the effect of 50 M linear and cyclic LC3 SUPR4B on DIRAS3-induced OVCAR8 (FIG. 8C) and SKOv3 (FIG. 8D) cells. Induction was performed using 1 g/mL DOX.
# (§3) After selection, the library was sequenced and lead compounds were subjected to thermodynamic and cellular assays to develop a structure-activity relationship modeling the interaction between the SUPR peptide and the target.
# [12] = test system: SKOv3 cells; assay: MTT viability assay in DIRAS3 autophagy model; details: 50 μM peptide; for cell viability (MTT), DIRAS3-induced (autophagic) cells: SKOv3, Dox-induced, 72 hours
# Method: as §1, §2, §3
# [13] = test system: SKOv3-ARHI cells; assay: Western blotting of p62 and LC3I/LC3II in DIRAS3-induced cells; assay type: cell-based; details: peptide-treated, 72 h
# Method: FIGS. 7A-B: SUPR4B in the DIRAS3 autophagy model.
# FIGS. 8A-F: SUPR4B in the DIRAS3 autophagy model. […] Induction was performed using 1 g/mL DOX.
# [14] = test system: Hey cell line; assay: MTT viability assay, cisplatin-resistant ovarian cancer cells; assay type: cell-based; details: cisplatin 10 μM + peptide, 48 hr
# Text: (§4) FIGS. 12A-D: SUPR4B1W sensitizes ovarian cancer cells to cisplatin.
# [15] = test system: OVCAR8 cell line; assay: as above; assay type: cell-based; details: OVCAR8, cisplatin 10 μM + peptide, 48 hr
# Text: as §4
# [16] = test system: Hey cell line; assay: Western blots of LC3-I/LC3-II and p62, cisplatin-resistant ovarian cancer cells; assay type: cell-based; details: 48 hr
# Text: as §4
# [17] = test system: OVCAR8 cell line; assay: as above; assay type: cell-based; details: 48 hr
# Text: as §4
# [18] = test system: OVCAR8 orthotopic ovarian tumors; assay: Orthotopic ovarian tumor model with carboplatin; assay type: in vivo
# Method: FIG. 13: SUPR4B1W sensitizes orthotopic ovarian tumors to carboplatin treatment. Mice were injected IP with 2 million OVCAR8 cells and treated three times per week for four weeks with vehicle control, SUPR peptide (10 mg/kg), carboplatin (25 mg/kg), or combination of SUPR peptide and carboplatin. At the end of four weeks, mice were sacrificed and tumors were dissected. […] For each vertical groups of data points, the top group represents Mouse Weight and the bottom group represents Tumor Weight.
# In animal model experiments, mice were implanted with a cisplatin-resistant ovarian cancer cell line (OVCAR8) and treated with carboplatin, SUPR4B1W peptide, or carboplatin+SUPR4B1W peptide for 4 weeks. At the conclusion of the study, the mice were sacrificed and the mass of the intraperitoneal tumors measured.
compound,measurement,setting,value
"SUPR 4B1W-ROX: SUPR 4B1W conjugated to the fluorophore ROX (MWPHRVTA[NMeA]K; bridge N-10 via DSG″; also: conjugated to fluorophore ROX, site not given here)",co-localization with GFP-LC3,[1],Significant co-localization of ROX and GFP signal
CSCC[C@@H]1NC(=O)CCCC(=O)NCCCC[C@@H](C(=O)O)NC(=O)[C@H](C)N(C)C(=O)[C@H](C)NC(=O)[C@H]([C@@H](C)O)NC(=O)[C@H](C(C)C)NC(=O)[C@H](CCCNC(=N)N)NC(=O)[C@H](Cc2c[nH]cn2)NC(=O)[C@@H]2CCCN2C(=O)[C@H](Cc2c[nH]c3ccccc23)NC1=O [SUPR 4B1W] (MWPHRVTA[NMeA]K-OH; linker N-10 via Glutaryl),improvement of apparent dissociation constant relative to SUPR4B,[2],~10 fold
same,binding to LC3A,[3],bound tightly
same,binding to LC3B,[4],bound tightly
same,binding to GABARAP1,[5],moderate off-target binding
same,binding to GABARAP2,[6],moderate off-target binding
same,binding to yeast LC3 ortholog Atg8,[7],moderate off-target binding
same,binding to LC3C,[8],Almost no binding
same,binding to ubiquitin,[9],Almost no binding
same,Cleavage of LC3-AMC by Atg4B (fluorescent signal),[10],significantly decreased fluorescent signal
same,"cell viability (MTT), DIRAS3-induced (autophagic) cells",[11],enhanced viability rescue phenotype
same,"cell viability (MTT), DIRAS3-induced (autophagic) cells",[11]; listed as SUPR4B1W,almost completely restores cell viability
same,"cell viability (MTT), non-DIRAS3 induced cells","[11]; OVCAR8, no Dox (non-autophagic), up to 72 hours",no change in cell viability
same,"cell viability (MTT), DIRAS3-induced (autophagic) cells",[12],enhanced viability rescue phenotype
same,"cell viability (MTT), DIRAS3-induced (autophagic) cells",[12]; listed as SUPR4B1W,almost completely restores cell viability
same,"cell viability (MTT), non-DIRAS3 induced cells","[12]; SKOv3, no Dox (non-autophagic), up to 72 hours",no change in cell viability
same,LC3I/LC3II ratio,[13],decreased LC3I/LC3II ratio
same,p62 protein levels,[13],accumulation of p62
same,cell viability (MTT) in combination with cisplatin,[14],re-sensitized the resistant cell lines to cisplatin
same,cell viability (MTT) in combination with cisplatin,[15],re-sensitized the resistant cell lines to cisplatin
same,p62 accumulation in combination with cisplatin,[16]; cisplatin 10 μM + peptide 50 µM,triggered accumulation of p62
same,LC3-I/LC3-II ratios in combination with cisplatin,[16]; cisplatin 10 μM + peptide,dramatically perturbed LC3-I/LC3-II ratios
same,p62 accumulation in combination with cisplatin,"[17]; OVCAR8, cisplatin 10 μM + peptide 50 µM",triggered accumulation of p62
same,LC3-I/LC3-II ratios in combination with cisplatin,"[17]; OVCAR8, cisplatin 10 μM + peptide",dramatically perturbed LC3-I/LC3-II ratios
same,"number of mice with no detectable tumors, peptide combined with carboplatin","[18]; IP OVCAR8, four weeks, peptide 10 mg/kg + carboplatin 25 mg/kg",6 mice
same,"final tumor mass, agent administered alone","[18]; mice, IP OVCAR8, three times per week for four weeks, SUPR peptide 10 mg/kg or carboplatin 25 mg/kg",no change in tumor volume
same,"final tumor mass, peptide combined with carboplatin","[18]; mice, IP OVCAR8, three times per week for four weeks, peptide 10 mg/kg + carboplatin 25 mg/kg",almost completely tumor-free; also recorded: significantly reduced tumor mass

# — patent publication US12569536B2, “Macrocyclic peptides for targeted inhibition of autophagy” (Board of Regents, The University of Texas System, priority 2019, dated 2026)
